Measured values reported in PMC9788040, “Molecular Diversity of Linear Peptides Revealed by Transcriptomic Analysis of the Venom Gland of the Spider Lycosa poonaensis” (Toxins, 2022).
Where no end group is shown, it is not given here.

Tests used:
[1] = system: Escherichia coli NBRC 3972; experiment: Antibacterial activity, liquid growth inhibition assay; format: cell-based; conditions: E. coli NBRC 3972, LB medium, overnight 37 °C, A595; MIC as interval [a]–[b]; at least three experiments in duplicate
Procedure: (§1) Antibacterial activity was measured using the Gram-negative bacteria Escherichia coli NBRC 3972 and the Gram-positive bacteria Staphylococcus aureus NBRC 13276 and Bacillus subtilis NBRC 3009 (NITE Biological Resource Center, Chiba, Japan), using a liquid growth inhibition assay. Each bacteria strain was grown in a liquid LB medium (1% tryptone, 0.5% yeast extract, and 1% NaCl). Aliquots of each sample (10 µL) were incubated with 90 µL of a suspension of a mid-logarithmic phase culture of bacteria in a 96-well plate at a starting absorbance of A595 = 0.001 in the LB medium; the incubation occurred overnight at 37 °C with continuous shaking. Growth inhibition was monitored by measuring the absorbance at 595 nm using a Benchmark microplate reader (Bio-Rad, Hercules, CA, USA). Experiments were repeated at least three times, each time in duplicate. Minimal inhibitory concentrations (MICs) are expressed as the interval of concentrations [a]–[b], where [a] is the highest concentration at which bacteria still grow and [b] is the lowest concentration causing growth inhibition.

[2] = system: Staphylococcus aureus NBRC 13276; experiment: as above; format: cell-based; conditions: S. aureus NBRC 13276, LB medium, overnight 37 °C, A595; MIC as interval [a]–[b]; at least three experiments in duplicate
Procedure: as §1

[3] = system: Bacillus subtilis NBRC 3009; experiment: as above; format: cell-based; conditions: B. subtilis NBRC 3009, LB medium, overnight 37 °C, A595; MIC as interval [a]–[b]; at least three experiments in duplicate
Procedure: as §1

[4] = system: sheep red blood cells (sRBCs); experiment: Hemolytic activity; format: cell-based; conditions: sheep RBC 4% (v/v) in PBS pH 7.2, 1 h 37 °C, absorbance 450 nm; 3 experiments in triplicate; read-out: Hemolysis EC50
Procedure: Fresh sheep red blood cells (sRBCs) were washed three times with PBS (35 mM phosphate buffer and 150 mM NaCl, pH 7.2) through centrifugation at 2000× g for 5 min and resuspended in PBS. Specifically, aliquots of each sample in PBS (50 μL) were added to 50 μL of sRBC suspension [4% (v/v) in the final] in a microtube and incubated for 1 h at 37 °C; then, the samples were centrifuged at 2000× g for 5 min. The supernatant was transferred to a 96-well plate to monitor hemoglobin release, which was done by measuring the absorbance of the supernatant at 450 nm using a Benchmark microplate reader. PBS and 0.1% Triton X-100 were used as the negative and positive controls, respectively. The experiments were repeated 3 times, each time in triplicate. In the equation to calculate the hemolysis rate, AP refers to peptide sample absorbance, AT refers to 0.1% Triton X-100 positive control absorbance, and A0 refers to PBS sample negative control absorbance. Hemolysis rate (%)=Ap−A0/AT−A0×100

[5] = system: crickets (Acheta domesticus); experiment: Insect toxicity (paralysis after injection); format: in vivo; conditions: injection into abdominal region, paralysis counted 30 min after injection, 10 insects per measurement, parentheses = 95% confidence intervals
Procedure: Insect toxicity was tested on crickets (Acheta domesticus, 50 ± 5 mg body weight) by injecting 1–2 µL of each sample dissolved in distilled water into their abdominal region. Distilled water was injected as a control. For each measurement, 10 insects were used, and the number of paralyzed insects was counted 30 min after injection. The doses required to induce paralysis in half of the test animals (PD50) were determined using the statistical software PRISM (GraphPad Software, La Jolla, CA, USA).

[6] = Secondary structure estimation by CD spectroscopy (DichroWeb); format: physicochemical; conditions: 25 °C, DichroWeb CDSSTR, reference dataset 4
Procedure: CD spectra were recorded on a J-820 spectropolarimeter (Jasco, Tokyo, Japan). The spectra were measured between 190–260 nm (in 0.2-nm steps) at 25 °C with a 1-mm-pathlength cell. Samples were dissolved in a 0.2 M phosphate buffer (pH 7.0) or 50% TFE in a 0.2 M phosphate buffer (pH 7.0) at a concentration of 10 µM. Five scans were averaged for each sample. The percentages of secondary structures were estimated from the spectra using the DichroWeb server. The helical wheel projection was performed using the online software HeliQuest (https://heliquest.ipmc.cnrs.fr, accessed on 14 July 2022).

[7] = solvent I: 0.2 M phosphate buffer pH 7.0, 10 µM
[8] = solvent II: 50% TFE in 0.2 M phosphate buffer pH 7.0, 10 µM

Substance	Antibacterial Activity MIC, E. coli [1] [µM]	Antibacterial Activity MIC, S. aureus [2] [µM]	Antibacterial Activity MIC, B. subtilis [3] [µM]	EC50 [4] [µM]	Insect Toxicity PD50 [5]	Percentage of Secondary Structure, Turns [6, 7] [%]	Percentage of Secondary Structure, Unordered [6, 7] [%]	Percentage of Secondary Structure, α-Helix [6, 7] [%]	Percentage of Secondary Structure, β-Sheet [6, 7] [%]	Percentage of Secondary Structure, Turns [6, 8] [%]	Percentage of Secondary Structure, Unordered [6, 8] [%]	Percentage of Secondary Structure, α-Helix [6, 8] [%]	Percentage of Secondary Structure, β-Sheet [6, 8] [%]
AGLGKIGAFIKKAYAIYKAKAA-NH2 [M-lycotoxin-Lp5a]	1.25 to 2.5	50 to 100	1.25 to 2.5	> 100	50 (18.3–138) µg/g Weight	28	33	15	23	10	18	55	17
AGLGKIGALIKKAYAIYKAKAA-NH2 [M-lycotoxin-Lp5b]	1.25 to 2.5	50 to 100	1.25 to 2.5	> 100	44 (12.2–160) µg/g Weight	25	34	7	33	11	23	51	14
IWLTALKFIGKNLGKHFAKQQLSKL-NH2 [M-lycotoxin-Lp3a]	0.8 to 1.6	0.4 to 0.8	0.8 to 1.6	> 100									
KIKWFKAMKSIAKYVAKKQLKKHLGGEN [M-lycotoxin-Lp4]					10 (5.8–17.1) µg/g Weight	26	33	8	33	13	23	51	11
MVWLLPLKFLASHVAMEQLSKLGSKIATKL-NH2 [M-lycotoxin-Lp1a]	6.2 to 12.5	12.5 to 25	12.5 to 25	> 100									
SKWKAFLAKMKEIASEAL-NH2 [M-lycotoxin-Lp6]	5 to 12.5	>100	5 to 12.5	> 100									
VIWLPALKFLASHIAMEQLSKL-NH2 [M-lycotoxin-Lp1b]	50 to 100	3.1 to 6.2	6.2 to 12.5	> 100									
